The values below are quoted from earlier work in patent US20090175803A1 (priority 2008, published 2009).

For data set [1] the following is noted: peroxyl-radical scavenging.
Data set [2] has as its target T1, PPARA (Homo sapiens, UniProt Q07869).
T1 sequence (Q07869 1-468): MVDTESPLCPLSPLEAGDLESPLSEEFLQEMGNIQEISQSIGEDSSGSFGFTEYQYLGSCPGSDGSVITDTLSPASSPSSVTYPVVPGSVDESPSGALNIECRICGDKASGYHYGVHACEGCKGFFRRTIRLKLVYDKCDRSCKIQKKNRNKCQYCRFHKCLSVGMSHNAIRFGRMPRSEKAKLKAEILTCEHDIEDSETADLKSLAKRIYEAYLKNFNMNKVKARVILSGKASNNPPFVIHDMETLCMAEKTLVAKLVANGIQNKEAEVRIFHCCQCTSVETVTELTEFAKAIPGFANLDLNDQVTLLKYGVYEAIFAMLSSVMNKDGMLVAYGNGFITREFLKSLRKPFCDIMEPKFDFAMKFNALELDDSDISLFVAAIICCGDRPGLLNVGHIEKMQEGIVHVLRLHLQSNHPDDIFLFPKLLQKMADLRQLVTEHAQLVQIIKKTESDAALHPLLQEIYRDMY

Data set [3] has as its system human gastric cancer.
Data set [4] concerns PGE2 production from LPS-stimulated human peripheral blood mononuclear cells. To be noted: LPS-stimulated human PBMC.
The subject of data set [5] is carcinogen-induced preneoplastic lesions. To be noted: mouse mammary organ culture.

Turning to `COc1cc(/C=C/c2ccc(O)cc2)cc(OC)c1` [Pterostilbene, 4-[(E)-2-(3,5-dimethoxyphenyl)ethenyl]phenol], the “total reactive antioxidant potential” value in data set [1] is 237 ± 58 µM. Further, under “animal studies”, the blood glucose result was “can lower blood glucose”. Moreover, the “lipid and glucose lowering effects” value (in vivo studies) is “possesses lipid and glucose lowering effects”. Further, in data set [2], the PPARA agonism entry is reported as “acts as a PPARA agonist”. For the same molecule, the “cell proliferation and apoptosis” value in data set [3] is “inhibit cell proliferation and induce apopotosis in a concentration- and time-dependent manner”. Moreover, in data set [4], the PGE2 production entry is reported as “inhibited PGE2 production”. In addition, the “inhibition of carcinogen-induced preneoplastic lesions” value in data set [5] is listed as “significant inhibition”.
